Measured values from patent US9085555B2, “Complement pathway modulators and uses thereof” (priority 2011, dated 2015).

Target: Factor D (Homo sapiens (Human), UniProt P00746)
Assay: biochemical
Format: biochemical
Conditions: read-out: IC50

Factor D, sequence (P00746 26-253): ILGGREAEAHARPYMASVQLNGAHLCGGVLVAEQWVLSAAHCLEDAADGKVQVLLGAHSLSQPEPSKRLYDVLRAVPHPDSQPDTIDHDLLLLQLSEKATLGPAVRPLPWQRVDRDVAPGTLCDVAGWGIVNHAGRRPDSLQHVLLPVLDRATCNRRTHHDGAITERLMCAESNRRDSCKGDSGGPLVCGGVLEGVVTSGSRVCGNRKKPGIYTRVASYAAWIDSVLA

Row | SMILES | IC50 [nM]
1 | NC(=O)c1cn(CC(=O)N2[C@@H]3C[C@@H]3C[C@H]2C(=O)NCc2cccc(Cl)c2F)c2ccccc12 [Example 475, 1-{2-[(1R,3S,5R)-3-(3-Chloro-2-fluoro-benzylcarbamoyl)-2-aza-bicyclo[3.1.0]hex-2-yl]-2-oxo-ethyl}-1H-indole-3-carboxylic acid amide] | 350
2 | NC(=O)c1nn(CC(=O)N2[C@@H]3C[C@@H]3C[C@H]2C(=O)Nc2cccc(-c3ncccc3Cl)c2F)c2cnccc12 [Example 688, 1-(2-{(1R,3S,5R)-3-[3-(3-Chloro-pyridin-2-yl)-2-fluoro-phenylcarbamoyl]-2-aza-bicyclo[3.1.0]hex-2-yl}-2-oxo-ethyl)-1H-pyrazolo[3,4-c] pyridine-3-carboxylic acid amide] | 10
3 | NC(=O)n1cc(NC(=O)N2C[C@H](F)C[C@H]2C(=O)N[C@H](CO)c2ccccc2)c2ccccc21 [Example 13, (2S,4R)-4-Fluoro-pyrrolidine-1,2-dicarboxylic acid 1-[(1-carbamoyl-1H-indol-3-yl)-amide] 2-[((S)-2-hydroxy-1-phenyl-ethyl)-amide]] | 139
4 | NC(=O)n1cc(NC(=O)N2C[C@@H](O)C[C@H]2C(=O)NCc2cccc(Cl)c2F)c2ccccc21 [Example 331, (2S,4S)-4-Hydroxy-pyrrolidine-1,2-dicarboxylic acid 1-[(1-carbamoyl-1H-indol-3-yl)-amide] 2-(3-chloro-2-fluoro-benzylamide)] | 35
5 | CCN(CC)c1cc(Cl)c(F)c(CNC(=O)[C@@H]2C[C@@H](F)CN2C(=O)Nc2cn(C(N)=O)c3ccccc23)c1 [Example 252, (2S,4R)-4-Fluoro-pyrrolidine-1,2-dicarboxylic acid 1-[(1-carbamoyl-1H-indol-3-yl)-amide] 2-(3-chloro-5-diethylamino-2-fluoro-benzylamide)] | 114
6 | NC(=O)n1cc(NC(=O)N2CC(F)(F)C[C@H]2C(=O)NCc2cccc(Cl)c2F)c2ccccc21 [Example 301, (S)-4,4-Difluoro-pyrrolidine-1,2-dicarboxylic acid 1-[(1-carbamoyl-1H-indol-3-yl)-amide] 2-(3-chloro-2-fluoro-benzylamide)] | 95
7 | NC(=O)n1cc(NC(=O)N2C[C@H](F)C[C@H]2CNS(=O)(=O)c2cccc(F)c2)c2ccccc21 [Example 106, 3-({(2S,4R)-4-Fluoro-2-[(3-fluoro-benzenesulfonylamino)-methyl]-pyrrolidine-1-carbonyl}-amino)-indole-1-carboxylic acid amide] | 700
8 | CO[C@@H]1C[C@@H](C(=O)Nc2cccc(OC(F)(F)F)c2)N(C(=O)Nc2cn(C(N)=O)c3ccccc23)C1 [Example 316, (2S,4R)-4-Methoxy-pyrrolidine-1,2-dicarboxylic acid 1-[(1-carbamoyl-1H-indol-3-yl)-amide] 2-[(3-trifluoromethoxy-phenyl)-amide]] | 3100
9 | NC(=O)c1nn(CC(=O)N2[C@@H]3C[C@@H]3C[C@H]2C(=O)Nc2cccc(OC(F)(F)F)c2F)c2cnc(C3CC3)cc12 [Example 719, 5-Cyclopropyl-1-(2-((1R,3S,5R)-3-((2-fluoro-3-(trifluoromethoxy)phenyl)carbamoyl)-2-azabicyclo [3.1.0]hexan-2-yl)-2-oxoethyl)-1H-pyrazolo[3,4-c]pyridine-3-carboxamide] | 13
10 | CC(=O)c1cn(CC(=O)N2C[C@H](F)C[C@H]2C(=O)NCc2cccc(Cl)c2F)c2ccc(OCc3ccccc3)cc12 [Example 508, (2S,4R)-1-[2-(3-Acetyl-5-benzyloxy-indol-1-yl)-acetyl]-4-fluoro-pyrrolidine-2-carboxylic acid 3-chloro-2-fluoro-benzylamide] | 12
11 | NC(=O)n1cc(NC(=O)N2[C@@H]3C[C@@H]3C[C@H]2C(=O)NCc2cccc(Cl)c2F)c2cc(OCC(=O)O)ccc21 [Example 374, (1-Carbamoyl-3-{[(1R,3S,5R)-3-(3-chloro-2-fluoro-benzylcarbamoyl)-2-aza-bicyclo[3.1.0]hexane-2-carbonyl]-amino}-1H-indol-5-yloxy)-acetic acid] | 3
12 | CO[C@H]1[C@@H](C(=O)NC2(c3ccc(Cl)cc3)CC2)N(C(=O)Cn2cc(C(C)=O)c3ccccc32)C[C@@H]1F [Example 573, (2S,3S,4S)-1-[2-(3-Acetyl-indol-1-yl)-acetyl]-4-fluoro-3-methoxy-pyrrolidine-2-carboxylic acid [1-(4-chloro-phenyl)-cyclopropyl]-amide] | 865
13 | CC(=O)c1cn(CC(=O)N2[C@@H]3C[C@@H]3C[C@H]2C(=O)NCc2cccc(Cl)c2F)c2cc(C(=N)N(C)C)ccc12 [Example 616, (1R,3S,5R)-2-{2-[3-Acetyl-6-(N,N-dimethyl-carbamimidoyl)-indol-1-yl]-acetyl}-2-aza-bicyclo[3.1.0]hexane-3-carboxylic acid 3-chloro-2-fluoro-benzylamide] | 123
14 | NC(=O)n1cc(NC(=O)N2CCC[C@H]2CNc2cccc(OC(F)(F)F)c2)c2ccccc21 [Example 117, 3-({(S)-2-[(3-Trifluoromethoxy-phenylamino)-methyl]-pyrrolidine-1-carbonyl}-amino)-indole-1-carboxylic acid amide] | 11800
15 | NC(=O)n1cc(NC(=O)N2CCC[C@H]2C(=O)Nc2cccc(OC(F)(F)F)c2)c2ccc(Br)cc21 [Example 286, (S)-Pyrrolidine-1,2-dicarboxylic acid 1-[(6-bromo-1-carbamoyl-1H-indol-3-yl)-amide] 2-[(3-trifluoromethoxy-phenyl)-amide]] | 2650
16 | COc1cccc(CNC(=O)[C@@H]2C[C@H](N)CN2C(=O)Nc2cn(C(N)=O)c3ccccc23)c1 [Example 36, (2S,4S)-4-Amino-pyrrolidine-1,2-dicarboxylic acid 1-[(1-carbamoyl-1H-indol-3-yl)-amide] 2-(3-methoxy-benzylamide)] | 3250
17 | COC(=O)COc1ccc2c(NC(=O)N3[C@@H]4C[C@@H]4C[C@H]3C(=O)NCc3cccc(Cl)c3F)cn(C(N)=O)c2c1 [Example 394, (1-Carbamoyl-3-{[(1R,3S,5R)-3-(3-chloro-2-fluoro-benzylcarbamoyl)-2-aza-bicyclo[3.1.0]hexane-2-carbonyl]-amino}-1H-indol-6-yloxy)-acetic acid methyl ester] | 70
18 | CNC(=O)n1cc(NC(=O)N2[C@@H]3C[C@@H]3C[C@H]2C(=O)N[C@H](CO)c2cccc(Cl)c2F)c2ccccc21 [Example 287, (1R,3S,5R)-2-Azabicyclo[3.1.0]hexane-2,3-dicarboxylic acid 3-{[(S)-1-(3-chloro-2-fluoro-phenyl)-2-hydroxy-ethyl]-amide}2-[(1-methylcarbamoyl-1H-indol-3-yl)-amide]] | 112
19 | NC(=O)n1cc(NC(=O)N2CCC[C@H]2C(=O)Nc2cccc(OC(F)(F)F)c2)c2ccc(Cl)cc21 [Example 291, (S)-Pyrrolidine-1,2-dicarboxylic acid 1-[(1-carbamoyl-6-chloro-1H-indol-3-yl)-amide] 2-[(3-trifluoromethoxy-phenyl)-amide]] | 3250
20 | NC[C@H]1C[C@@H](C(=O)NCc2cccc(Cl)c2F)N(C(=O)Nc2cn(C(N)=O)c3ccccc23)C1 [Example 405, 2S,4R)-4-Aminomethyl-pyrrolidine-1,2-dicarboxylic acid 1-[(1-carbamoyl-1H-indol-3-yl)-amide]2-(3-chloro-2-fluoro-benzylamide] | 295
21 | COc1cnc2c(c1)c(C(C)=O)cn2CC(=O)N1[C@@H]2C[C@@H]2C[C@H]1C(=O)NCc1cccc(Cl)c1F [Example 494, (1R,3S,5R)-2-[2-(3-Acetyl-5-methoxy-pyrrolo[2,3-b]pyridin-1-yl)-acetyl]-2-aza-bicyclo [3.1.0]hexane-3-carboxylic acid 3-chloro-2-fluoro-benzylamide] | 50
22 | CC(=O)c1cn(CC(=O)N2CCS[C@H]2C(=O)NCc2cccc(Cl)c2F)c2ncccc12 [Example 513, (S)-3-[2-(3-Acetyl-pyrrolo[2,3-b]pyridin-1-yl)-acetyl]-thiazolidine-2-carboxylic acid 3-chloro-2-fluoro-benzylamide] | 193
23 | NC(=O)n1cc(CC(=O)N2C[C@H](F)C[C@H]2C(=O)Nc2cccc(OC(F)(F)F)c2F)c2ccccc21 [Example 442, 3-{2-[(2S,4R)-4-Fluoro-2-(2-fluoro-3-trifluoromethoxy-phenylcarbamoyl)-pyrrolidin-1-yl]-2-oxo-ethyl}-indole-1-carboxylic acid amide] | 850
24 | COC[C@@H](NC(=O)[C@@H]1C[C@H]2C[C@H]2N1C(=O)Cc1cn(C(N)=O)c2ccccc12)c1cccc(Cl)c1F [Example 464, 3-(2-{(1R,3S,5R)-3-[(S)-1-(3-Chloro-2-fluoro-phenyl)-2-methoxy-ethylcarbamoyl]-2-aza-bicyclo[3.1.0]hex-2-yl}-2-oxo-ethyl)-indole-1-carboxylic acid amide] | 254
25 | CC(=O)c1cn(CC(=O)N2C[C@H](F)C[C@H]2C(=O)NCc2cccc(Cl)c2F)c2cc(-c3nnn[nH]3)ccc12 [Example 617, (2S,4R)-1-{2-[3-Acetyl-6-(1H-tetrazol-5-yl)-indol-1-yl]-acetyl}-4-fluoro-pyrrolidine-2-carboxylic acid 3-chloro-2-fluoro-benzylamide] | 28
26 | CC(=O)c1cn(CC(=O)N2C[C@H]3C[C@H]3[C@H]2C(=O)NCc2cccc(Cl)c2F)c2cnccc12 [Example 506, (1R,2S,5S)-3-[2-(3-Acetyl-pyrrolo[2,3-c]pyridin-1-yl)-acetyl]-3-aza-bicyclo[3.1.0] hexane-2-carboxylic acid 3-chloro-2-fluoro-benzylamide] | 331
27 | CC(C)(C)c1cc(NC(=O)[C@@H]2C[C@@H](F)CN2C(=O)Nc2cn(C(N)=O)c3ccccc23)ccn1 [Example 317, (2S,4R)-4-Fluoro-pyrrolidine-1,2-dicarboxylic acid 2-[(2-tert-butyl-pyridin-4-yl)-amide] 1-[(1-carbamoyl-1H-indol-3-yl)-amide]] | 2800
28 | NC(=O)n1cc(NC(=O)N2C[C@H](F)C[C@H]2C(=O)NCc2cccc(O)c2)c2ccccc21 [Example 9, (2S,4R)-4-Fluoro-pyrrolidine-1,2-dicarboxylic acid 1-[(1-carbamoyl-1H-indol-3-yl)-amide] 2-(3-hydroxy-benzylamide)] | 250
